In US10968203B2, “Pyrimidinyl-pyridyloxy-naphthyl compounds and methods of treating IRE1-related diseases and disorders” (Genentech, Inc., priority 2017, dated 2021):
Counter-ions that a name gives are not always drawn.

These molecules were tested on XBP1s-luc 293 LUC (assay: cellular PD assay, XBP1s-LUC reporter (Example 903)). Details: Table 1; read-out: XBP1s-luc 293 LUC (IC50).
Type: cell-based
How it was run: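 A luciferase fusion, in frame and expressed only when the XBP1 transcript is spliced, served as the readout of cellular IRE1α activity in an XBP1-Luc reporter line.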
`Cc1ccc2c(NC(=O)CC3CCCCC3)c(F)ccc2c1Oc1ncccc1-c1ccnc(N[C@H]2CCCNC2)n1` [Example 364, (S)-2-Cyclohexyl-N-(2-fluoro-6-methyl-5-((3-(2-(piperidin-3-ylamino)pyrimidin-4-yl)pyridin-2-yl)oxy)naphthalen-1-yl)acetamide] gave an IC50 of 216 nM. Molecule `Cc1ccc2c(NCC[C@@H]3CC3(F)F)cccc2c1Oc1ncccc1-c1ccnc(N[C@H]2CCCNC2)n1` (single isomer, unassigned) [Example 291] has an IC50 of 361 nM. Work on `Cc1ccc2c(NS(=O)(=O)CC3CC3)cccc2c1Oc1ncccc1-c1ccnc(N[C@H]2CCCNC2)n1` [Example 124, (S)-1-Cyclopropyl-N-(6-methyl-5-((3-(2-(piperidin-3-ylamino)pyrimidin-4-yl)pyridin-2-yl)oxy)naphthalen-1-yl)methanesulfonamide hydrochloride] yielded an IC50 of 105 nM. For `Cc1ccc2c(NCc3ccccn3)cccc2c1Oc1ncccc1-c1ccnc(N[C@H]2CCCNC2)n1` [Example 261, (S)-4-(2-((2-Methyl-5-((pyridin-2-ylmethyl)amino)naphthalen-1-yl)oxy)pyridin-3-yl)-N-(piperidin-3-yl)pyrimidin-2-amine], the IC50 was 220 nM. With `CC[C@@H]1CCN(c2cccc3c(Oc4ncccc4-c4ccnc(N[C@@H]5CNC[C@H](C)C5)n4)c(C)ccc23)C1=O` (single isomer, unassigned) [Example 331] the IC50 was 57.9 nM. With `Cc1ccc2c(N3CCN(C)S3(=O)=O)cccc2c1Oc1ncccc1-c1ccnc(N[C@H]2CCCNC2)n1` [Example 247, (S)-2-Methyl-5-(6-methyl-5-((3-(2-(piperidin-3-ylamino)pyrimidin-4-yl)pyridin-2-yl)oxy)naphthalen-1-yl)-1,2,5-thiadiazolidine 1,1-dioxide] the IC50 was 360 nM. With `CC[C@H](C)C(=O)Nc1cccc2c(Oc3ncccc3-c3ccnc(N[C@H]4CCCNC4)n3)c(C)ccc12` [Example 203, (S)-2-methyl-N-(6-methyl-5-((3-(2-(((S)-piperidin-3-yl)amino)pyrimidin-4-yl)pyridin-2-yl)oxy)naphthalen-1-yl)butanamide] the IC50 was 161 nM. With `Cc1ccc2c(NS(=O)(=O)CC(F)(F)F)c(F)ccc2c1Oc1ncccc1-c1ccnc(N[C@H]2CCCNC2)n1` [Example 362, (S)-2,2,2-Trifluoro-N-(2-fluoro-6-methyl-5-((3-(2-(piperidin-3-ylamino)pyrimidin-4-yl)pyridin-2-yl)oxy)naphthalen-1-yl)ethanesulfonamide] the IC50 was 23.4 nM. In the case of `Cc1ccc2c(NS(=O)(=O)CCl)cccc2c1Oc1ncccc1-c1ccnc(N[C@H]2CCCNC2)n1` [Example 151, (S)-1-Chloro-N-(6-methyl-5-((3-(2-(piperidin-3-ylamino)pyrimidin-4-yl)pyridin-2-yl)oxy)naphthalen-1-yl)methanesulfonamide], the IC50 is reported as 140 nM. `Cc1ccc2c(NC(=O)[C@@H]3C[C@H]3C)cccc2c1Oc1ncccc1-c1ccnc(N[C@H]2CCCNC2)n1` [Example 232, (1R,2R)-2-Methyl-N-(6-methyl-5-((3-(2-(((S)-piperidin-3-yl)amino)pyrimidin-4-yl)pyridin-2-yl)oxy)naphthalen-1-yl)cyclopropane-1-carboxamide] gave an IC50 of 136 nM. Work on `Cc1ccc2c(NC(=O)[C@@H]3C[C@@]3(F)c3ccccc3)cccc2c1Oc1ncccc1-c1ccnc(N[C@H]2CCCNC2)n1` (single isomer, unassigned) [Example 226] yielded an IC50 of 223 nM. `Cc1ccc2c(Nc3nn(C)cc3F)cccc2c1Oc1ncccc1-c1ccnc(N[C@H]2CCCNC2)n1` [Example 360, (S)-4-(2-((5-((4-Fluoro-1-methyl-1H-pyrazol-3-yl)amino)-2-methylnaphthalen-1-yl)oxy)pyridin-3-yl)-N-(piperidin-3-yl)pyrimidin-2-amine] gave an IC50 of 455 nM. With `Cc1ccc2c(NS(=O)(=O)CBr)cccc2c1Oc1ncccc1-c1ccnc(N[C@H]2CCCNC2)n1` [Example 172, (S)-1-Bromo-N-(6-methyl-5-(3-(2-(piperidin-3-ylamino)pyrimidin-4-yl)pyridin-2-yloxy)naphthalen-1-yl)methanesulfonamide] the IC50 was 393 nM. In the case of `Cc1ccc2c(NC[C@H]3CC3(F)F)cccc2c1Oc1ncccc1-c1ccnc(N[C@H]2CCCNC2)n1` (single isomer, unassigned) [Example 342], the IC50 is reported as 121 nM. For `Cc1ccc2c(NC(=O)[C@@H]3CC34CC4)cccc2c1Oc1ncccc1-c1ccnc(N[C@H]2CCCNC2)n1` (single isomer, unassigned) [Example 218], the IC50 was 174 nM. `Cc1ccc2c(NC(=O)CC3CCCCC3)cccc2c1Oc1ncccc1-c1ccnc(N[C@@H]2CNC[C@H](C)C2)n1` [Example 303, 2-Cyclohexyl-N-(6-methyl-5-((3-(2-(((3S,5R)-5-methylpiperidin-3-yl)amino)pyrimidin-4-yl)pyridin-2-yl)oxy)naphthalen-1-yl)acetamide] gave an IC50 of 126 nM. `Cc1ccc2c(NCC3CC3)cccc2c1Oc1ncccc1-c1ccnc(N[C@H]2CCCNC2)n1` [Example 223, (S)-4-(2-((5-((Cyclopropylmethyl)amino)-2-methylnaphthalen-1-yl)oxy)pyridin-3-yl)-N-(piperidin-3-yl)pyrimidin-2-amine] showed an IC50 of 212 nM. In the case of `CCCS(=O)(=O)Nc1cccc2c(Oc3ncc(Cl)cc3-c3ccnc(N[C@H]4CCCNC4)n3)c(C)ccc12` [Example 385, (S)—N-(5-((5-Chloro-3-(2-(piperidin-3-ylamino)pyrimidin-4-yl)pyridin-2-yl)oxy)-6-methylnaphthalen-1-yl)propane-1-sulfonamide], the IC50 is reported as 366 nM. In the case of `Cc1ccc2c(NC(=O)c3cccc(C(C)(C)C#N)c3)cccc2c1Oc1ncccc1-c1ccnc(N[C@H]2CCCNC2)n1` [Example 101, (S)-3-(2-Cyanopropan-2-yl)-N-(6-methyl-5-((3-(2-(piperidin-3-ylamino)pyrimidin-4-yl)pyridin-2-yl)oxy)naphthalen-1-yl)benzamide], the IC50 is reported as 102 nM. `Cc1ccc2c(NS(=O)(=O)Cc3ccc(C(F)F)cc3)cccc2c1Oc1ncccc1-c1ccnc(N[C@H]2CCCNC2)n1` [Example 160, (S)-1-(4-(Difluoromethyl)phenyl)-N-(6-methyl-5-((3-(2-(piperidin-3-ylamino)pyrimidin-4-yl)pyridin-2-yl)oxy)naphthalen-1-yl)methanesulfonamide] gave an IC50 of 13 nM.

Same assay, conditions: Table 2; hydrochloride; read-out: XBP1s-luc 293 LUC (IC50)
With `Cc1ccc2c(NS(=O)(=O)CC(C)C(F)(F)F)c(F)ccc2c1Oc1ncccc1-c1ccnc(N[C@H]2CCCNC2)n1` (single isomer, unassigned) [Example 455, hydrochloride] the IC50 was 18 nM.

Same assay, conditions: Table 2; read-out: XBP1s-luc 293 LUC (IC50)
For `Cc1nc(CS(=O)(=O)Nc2c(F)ccc3c(Oc4ncccc4-c4ccnc(N[C@@H]5CNC[C@@H](F)C5)n4)c(C)ccc23)cs1` (single isomer, unassigned) [Example 490, hydrochloride], the IC50 was 4 nM. `Cc1ccc2c(NS(=O)(=O)C=C3CCC3)c(F)ccc2c1Oc1ncccc1-c1ccnc(N[C@H]2CCCNC2)n1` [Example 413, 1-Cyclobutylidene-N-[2-fluoro-6-methyl-5-[[3-[2-[[(3S)-3-piperidyl]amino]pyrimidin-4-yl]-2-pyridyl]oxy]-1-naphthyl]methanesulfonamide hydrochloride] was tested, and the IC50 was 50 nM. Work on `CCN(C)S(=O)(=O)Nc1c(F)ccc2c(Oc3ncccc3-c3ccnc(N[C@H]4CCCNC4)n3)c(C)ccc12` [Example 421, 4-[2-[[5-[[Ethyl(methyl)sulfamoyl]amino]-6-fluoro-2-methyl-1-naphthyl]oxy]-3-pyridyl]-2-[[(3S)-3-piperidyl]amino]pyrimidine hydrochloride] yielded an IC50 of 44 nM.
